In one data set the test system is mycobacteria. Also noted: method as in PMID 27704782. The note with it: growth of mycobacteria; cited from earlier work.
For data set [1], the system named is M. tuberculosis. Also noted: method as in PMID 37111241. The note with it: cited from earlier work.
The test system of data set [2] is influenza virus A/California/7/2009 (H1N1)pdm09. Description: microbe, parasite or virus in culture. Type of data set: cell-based, human influenza virus A. The note with it: for IC50: H1N1, MDCK; for SI (selectivity index): ratio of CD50 (CC50) to IC50, MDCK.
Data set [3] can be described thus: Cytotoxic effect in MDCK cell culture (MTS). The data set is classed as cell-based. Particulars: dog. As to the method: Multiple dilutions of solutions of all compounds were prepared in 24-well plates by titration into 8 wells, starting from a dilution of 1:10 to 1:1280. The resulting serial dilutions were transferred to the wells of the test plates with cells. Each point was tested in 4 parallel wells. The working medium was added to the wells of the cell control. […] Then, the culture medium was removed from the plates, and 100 μL of the medium and 20 μL of the MTS solution were added to the cell culture monolayer in each well. After incubation for 3 hours at 37°C, the results were recorded on a BIO-RAD automatic reader at a wavelength of 490 nm. Reference filter - 630 nm.
To obtain statistically reliable results, the experiments were performed 2-3 times. The values of CC50 and IC50 were calculated using generally accepted methods for biological research, as implemented in the Microsoft Excel 5.0 and GraphPad Prism 6.01 software packages. The working model for CC50 analysis was a 4-parameter logistic curve equation (menu items “Nonlinear regression” - “Sigmoidal dose-response (variable slope)”). For IC50 analysis, a 4-parameter logistic curve equation was adopted (menu items “Nonlinear regression” - “log (inhibitor) vs. response (variable slope)”). Based on the obtained data, the selectivity index (SI) was calculated using the equation: SI = CC50/ IC50.

Another data set relates to SARS-CoV-2. Briefly: microbe, parasite or virus in culture. The data set is classed as cell-based. Particulars: for IC50: Severe acute respiratory syndrome coronavirus 2, Vero C1008, Vero E6.
In a further data set the test system is HL60 leukemia cells. Description: Cytotoxicity on tumor cell cultures (resazurin, 48 h). Particulars: Homo sapiens, HL-60; HL60, 48 h. Type of data set: cell-based. As to the method:
(§1) The total well volume was 150 μl.
Background: Resazurin is reduced to fluorescent resorufin, in cell work by metabolically active cells.

The subject of another data set is K562 leukemia cells. The description is as above. Type of data set: cell-based. The note with it: Homo sapiens, K562, 48 h. On the procedure:
as §1

The test system of data set [4] is SH-SY5Y neuroblastoma cells. Described as above. The data set is classed as cell-based. The note with it: Homo sapiens. On the procedure: as §1
In a further data set the test system is M. tuberculosis H37Rv. Briefly: Bacteriostatic activity, proportion method, BACTEC MGIT 960, Middlebrook 7H9. Particulars: for MIC / MIC50: Mycobacterium tuberculosis, H37RV; for MIC: 75% inhibition of mycobacterial growth; for MIC50: 50% inhibition of mycobacterial growth, read-out: MIC 50; for effect on growth of M. tuberculosis H37Rv culture, in words: up to the maximum tested concentration. The data set is classed as cell-based, Mycobacterium tuberculosis.

Data set [5] relates to GBM5522 low-passage primary glioblastoma multiforme cells. Description: Cytotoxicity on tumor cell cultures (resazurin, 48 h). Particulars: 48 h.
Description: The low-passage primary glioblastoma multiforme cell culture GBM5522 was previously described [37]. Cells were cultured in DMEM (Servicebio) containing 10% fetal bovine serum (FBS) at 37°C in an atmosphere of 5% CO2. The cells were plated in 96-well plates at a density of 1x10^4 cells/well. The test substances were then added in concentrations ranging from 0.8 to 100 μM. DMSO at a concentration of 1% was used as a control, corresponding to the percentage of DMSO when the highest concentration of the drug was added. The total well volume was 150 μl. The cells were incubated for 48 hours at 37°C in a 5% CO2 atmosphere. Resazurin was added in a concentration of 10 μl of a 0.5 mg/mL solution in phosphate-buffered saline. The incubation was carried out under the same conditions for 4 hours, and then the fluorescence level was measured at an excitation wavelength of 560 nm and an emission wavelength of 590 nm using a CLARIOstar multimodal microplate reader (BMG Labtech, Germany). The data obtained for each concentration were normalized to the control, and the IC50 was calculated using the nonlinear regression method. The minimum number of repetitions for each concentration was three. The GraphPad Prism software v.9.5.1 (GraphPad Software, San Diego, USA) was used to calculate the IC50 and plot the percentage of living cells versus the concentration of the drug.
The subject of data set [6] is SH-SY5Y, K-562, HL-60, GBM5522 cells. Description: Cytotoxicity screening, summary over the cancer cell panel. The data set is classed as cell-based. On the procedure:
as §1
Cytotoxicity screening of the synthesized indazole derivatives was performed on the cell line of neuroblastoma SH-SY5Y, lymphoblastic cells K-562, promyeloblastic cells HL-60, low-passage variant of highly differentiated multiform glioblastoma GBM5522 (Table 2).

For data set [7], the system named is M. tuberculosis. The note with it: cited from earlier work.

Molecules are shown by their SMILES. Values after ≈ are worked out from the molar mass of the structure shown. Values joined by “and” are separate entries in the source; they are usually repeats but may differ in a detail not shown here. Identical values can stand only once. “Also recorded” adds a separate entry of the source. Counter-ions that a name gives are not always drawn. Like-named read-outs stand apart in the source and are kept apart here.

As to `Cc1n[nH]c(C)c1S(=O)(=O)Nc1ccc2cn[nH]c2c1` [Compound 4, N-(1H-indazol-6-yl)-3,5-dimethyl-1H-pyrazole-4-sulfonamide], in the data set with mycobacteria, the MIC is 2 µM (≈ 0.583 µg/mL).
Regarding `O=C(N/N=C/c1ccc2c[nH]nc2c1)c1ccncc1` [Compound 5], in the data set on M. tuberculosis [1], the MIC is 0.11 µM (≈ 0.0292 µg/mL).
Regarding `c1cc2[nH]ncc2cc1-c1cn[nH]c1` [Compound 7, 5-(1H-pyrazol-4-yl)-1H-indazole], the Δlgmax in data set [2] came to 0; in the data set with SARS-CoV-2 it was 0.25. Further, the IC50 in data set [2] is over 20 µM; in the data set on SARS-CoV-2, over 50 µM; in the data set with HL60 leukemia cells, 23.7 ± 5 µM; in the data set with K562 leukemia cells, 24.4 ± 3.1 µM; in data set [4], 15.5 ± 5.3 µM; in [5] it was 36.8 ± 2 µM. The “SI (selectivity index)” value in data set [2] is reported as under 5. This compound also had a CC50 at 66 h in data set [3] of 100 µM. The MIC in the data set with M. tuberculosis H37Rv was 60 µg/mL and 326 µM. The MIC50 with M. tuberculosis H37Rv was 40 µg/mL and 217 µM.
Turning to `c1ncc(-c2ccc3[nH]ncc3c2)cn1` [Compound 9, 5-(pyrimidin-5-yl)-1H-indazole], the Δlgmax in data set [2] came to 1.0; with SARS-CoV-2 it was 0. In addition, the IC50 in data set [2] was over 100 µM; in the data set with SARS-CoV-2 it was over 50 µM; with HL60 leukemia cells it was over 100 µM; with K562 leukemia cells, over 100 µM; in data set [4], over 100 µM; in [5], over 100 µM. In addition, in data set [2], the “SI (selectivity index)” value is reported as under 10. In [3], this compound registered a CC50 at 66 h of 1050 µM. Further, in data set [6], the cytotoxicity in words result is “inactive”. Further, the minimum inhibitory concentration (MIC) in the data set with M. tuberculosis H37Rv was 40 µg/mL and 204 µM. The MIC50 in the data set with M. tuberculosis H37Rv was 40 µg/mL and 204 µM. Moreover, the “effect on growth of M. tuberculosis H37Rv culture, in words” value in the data set with M. tuberculosis H37Rv was “best antibacterial activity”.
On to `c1cncc(-c2ccc3[nH]ncc3c2)c1` [Compound 10, 5-(pyridin-3-yl)-1H-indazole], for which the Δlgmax came out at 1.5 in [2] and 0.75 in the data set with SARS-CoV-2. For the same compound, the half-inhibitory concentration (IC50) in data set [2] was 25 µM; in the data set on SARS-CoV-2, over 25 µM; in the data set with HL60 leukemia cells, over 100 µM; in the data set on K562 leukemia cells, 5.5 ± 1.5 µM; in data set [4] it was 14.3 ± 5 µM; in data set [5] it was 95.4 ± 5.2 µM. Also, the “maximum reduction of the infectious titer” value in data set [2] (MDCK cell culture) worked out at 1.5 logTCID50. Besides, the “SI (selectivity index)” value in data set [2] is 24,4. Besides, in [3], the CC50 at 66 h came to 610 µM. Also, the “effect on growth of M. tuberculosis H37Rv culture, in words” value in the data set with M. tuberculosis H37Rv is “did not affect the growth; also recorded: completely devoid of the ability to suppress the growth of mycobacteria”.
For `c1ncc(-c2ccc3cn[nH]c3c2)cn1` [Compound 11, 6-(pyrimidin-5-yl)-1H-indazole], the Δlgmax turned out to be 0.5 in data set [2] and 0 in the data set on SARS-CoV-2. Further, the IC50 in [2] was over 200 µM; in the data set on SARS-CoV-2, over 200 µM; in the data set with HL60 leukemia cells, over 100 µM; in the data set on K562 leukemia cells, over 100 µM; in data set [4] it was over 100 µM; in [5], over 100 µM. In data set [2], the “SI (selectivity index)” value was under 5. The compound further came in with a CC50 at 66 h in [3] of 1120 µM. The cytotoxicity in words result in [6] is “inactive”. In addition, the MIC50 in the data set on M. tuberculosis H37Rv is 60 µg/mL and 306 µM.
In data set [2], `CCOC(=O)C1=C[C@@H](OC(CC)CC)[C@H](NC(C)=O)[C@@H](N)C1` [Oseltamivir, (3R,4R,5S)-4-acetamido-5-amino-3-(1-ethylpropo-xy)-1-cyclohexene-1-carboxylic acid ethyl ester phosphate salt, reference compound] came in with a Δlgmax of 6.0 and an IC50 of 0.61 µM. The same compound showed a half-maximal cytotoxic concentration (CC50) at 66 h in data set [3] of 820 µM.
Consider `NNC(=O)c1ccncc1` [isoniazid], for which the MIC in the data set on M. tuberculosis [1] is 0.36 µM (≈ 0.0494 µg/mL). For the same compound, the critical concentration in the data set with M. tuberculosis [7] (control drugs) is 1 μg/mL and 0.73 µM.
Regarding `NC(=O)c1cnccn1` [pyrazinamide], the critical concentration with M. tuberculosis [7] is 100 μg/mL and 812 µM.
`CO[C@H]1/C=C/O[C@@]2(C)Oc3c(C)c(O)c4c(O)c(c(/C=N/N5CCN(C)CC5)c(O)c4c3C2=O)NC(=O)/C(C)=C\C=C\[C@H](C)[C@H](O)[C@@H](C)[C@@H](O)[C@@H](C)[C@H](OC(C)=O)[C@@H]1C` [rifampicin]: the critical concentration with M. tuberculosis [7] (control drugs) was 0.5 μg/mL and 0.61 µM.

Broadly, the MIC is the lowest concentration found to suppress growth. For orientation: IC50 means the concentration that gives 50% inhibition. Lower therefore signals inhibition by little substance. Usually CC50 stands for the concentration at which the toxic effect on the cells reaches its halfway point.

The record behind these values is article PMC13223490, “New Indazole Derivatives as Potential Scaffolds for the Development of Anticancer, Antiviral, and Anti-tuberculosis Chemotherapeutic Compounds” (Current Medicinal Chemistry, 2025).
